Data taken from publication PMC9144829, “Histone Deacetylase Inhibitory Activity and Antiproliferative Potential of New [6]-Shogaol Derivatives” (Molecules, 2022).

Tested on: HDAC enzymes (HeLa nuclear extract, mixed-HDAC isoforms)
Assay: Fluor-de-Lys HDAC activity assay kit, HeLa nuclear extract as source of HDAC enzymes
Format: biochemical, human
Conditions: compounds at 100 µM
Procedure: The in vitro HDAC inhibitions of the obtained compounds were carried out with the assay kit containing mixed-HDAC isoforms. […] Therefore, the results were not fully related. However, compounds with good binding affinities should have the potential to be specific HDAC inhibitors for each isoform.
The semi-synthetic derivatives were evaluated for their ability to inhibit HDAC enzymes. Inhibition of HDAC activity in vitro was assessed using the Fluor-de-Lys HDAC activity assay kit (Biomol, Enzo Life Sciences International, Inc., Farmingdale, NY, USA). The HeLa nuclear extract provided with the kit was used as a source of HDAC enzymes for the in vitro study. TSA was used as the positive control. The HeLa nuclear extract, substrate, buffer and inhibitors were incubated. Deacetylation of the substrate was performed next by adding a developer to generate a fluorophore. The spectra Max Gemini XPS microplate spectrofluorometer (Molecular Devices, San Jose, CA, USA) was used to measure fluorescence signal with excitation at 360 nm and emission at 460 nm. A decrease in fluorescence signal indicated an inhibition of HDAC activity. Trichostatin A (TSA) was used as a positive control. All experiments were carried out in triplicate.

Molecule	%HDAC Inhibition [%]
CCCCCC1CC(CCc2ccc(O)c(OC)c2)=Nc2ccccc2N1 (centres unmarked) [Compound 7, 2-Methoxy-4-(2-(2-pentyl-2,3-dihydro-1H-benzo[b][1,4]diazepin-4-yl)ethyl)phenol]	63
10-(4-Hydroxy-3-methoxyphenyl)-6-(phenylamino)decan-8-one [Compound 6c]	53
CCCCCC1CC(CCc2ccc(O)c(OC)c2)=NN1c1ccccc1OC (centres unmarked) [Compound 5c, 2-methoxy-4-(2-(1-(2-methoxyphenyl)-5-pentyl-4,5-dihydro-1H-pyrazol-3-yl)ethyl) phenol]	52
CC(/C=C/C(=O)NO)=C\[C@@H](C)C(=O)c1ccc(N(C)C)cc1 [TSA, Trichostatin A, reference compound]	92
CCCCCC1CC(CCc2ccc(O)c(OC)c2)=NN1c1cccc(Cl)c1 (centres unmarked) [Compound 5g, 4-(2-(1-(3-chlorophenyl)-5-pentyl-4,5-dihydro-1H-pyrazol-3-yl)ethyl)-2-methoxyphenol]	60
CCCCCC1CC(CCc2ccc(O)c(OC)c2)=NN1c1ccc(Cl)cc1 (centres unmarked) [Compound 5h, 4-(2-(1-(4-chlorophenyl)-5-pentyl-4,5-dihydro-1H-pyrazol-3-yl)ethyl)-2-methoxyphenol]	68
CCCCCC1CC(CCc2ccc(O)c(OC)c2)=NN1c1ccc(OC)cc1 (centres unmarked) [Compound 5d, 2-methoxy-4-(2-(1-(4-methoxyphenyl)-5-pentyl-4,5-dihydro-1H-pyrazol-3-yl)ethyl) phenol]	67
CCCCC/C=C/C(CCc1ccc(O)c(OC)c1)=N\NC1=NCC=N1 [Compound 4e, 4-((3Z,4E)-3-(2-(4H-Imidazol-2-yl)hydrazono)dec-4-en-1-yl)-2-methoxyphenol]	73
10-(4-Hydroxy-3-methoxyphenyl)-6-((2-mercaptophenyl)amino)decan-8-one [Compound 6a]	54
CCCCCC1CC(CCc2ccc(O)c(OC)c2)=NN1c1cccc([N+](=O)[O-])c1 (centres unmarked) [Compound 5i, 2-methoxy-4-(2-(1-(3-nitrophenyl)-5-pentyl-4,5-dihydro-1H-pyrazol-3-yl)ethyl)phe nol]	77
CCCCC/C=C/C(CCc1ccc(O)c(OC)c1)=N\N [Compound 4a, 4-((3Z,4E)-3-Hydrazonodec-4-en-1-yl)-2-methoxyphenol]	73
CCCCCC1CC(CCc2ccc(O)c(OC)c2)=NN1c1ccccc1 (centres unmarked) [Compound 5a, 2-methoxy-4-(2-(5-pentyl-1-phenyl-4,5-dihydro-1H-pyrazol-3-yl)ethyl)phenol]	74
CCCCCC1CC(CCc2ccc(O)c(OC)c2)=NN1c1ccccc1F (centres unmarked) [Compound 5e, 4-(2-(1-(2-fluorophenyl)-5-pentyl-4,5-dihydro-1H-pyrazol-3-yl)ethyl)-2-methoxyphenol]	54
CCCCC/C=C/C(CCc1ccc(O)c(OC)c1)=N\Nc1ccc(C(=O)O)cc1 [Compound 4b, 4-(2-((3Z,4E)-1-(4-Hydroxy-3-methoxyphenyl)dec-4-en-3-ylidene)hydrazinyl)benzo-ic acid]	73
CCCCCC1CC(CCc2ccc(O)c(OC)c2)=NN1c1ccc(F)cc1 (centres unmarked) [Compound 5f, 4-(2-(1-(4-fluorophenyl)-5-pentyl-4,5-dihydro-1H-pyrazol-3-yl)ethyl)-2-methoxyphenol]	77
10-(4-Hydroxy-3-methoxyphenyl)-6-((2-hydroxyphenyl)amino)decan-8-one [Compound 6b]	64
CCCCCC1CC(CCc2ccc(O)c(OC)c2)=NN1c1ccccc1C (centres unmarked) [Compound 5b, 2-methoxy-4-(2-(5-pentyl-1-(o-tolyl)-4,5-dihydro-1H-pyrazol-3-yl)ethyl)phenol]	56
